Assays:
Water solubility = type: physicochemical
[1] = In vitro photoacoustic (PA) signal measurement in polyethylene tubing, PA microscopy at 410 nm
Text: The microscopy system consists of laser pulse generation and delivery, PA signal reception, and image reconstruction and display. Laser pulses, 4 ns wide, were generated at a frequency of 10 Hz by using an optical parametric oscillator (Surlite OPO Plus, Continuum, USA). The laser was pumped by a frequency-tripled Nd:YAG Q-switched laser (Surlite II-10, Continuum, USA). The incident wavelength was set at 410 nm. The custom-made 50-MHz ultrasonic transducer (Acoustic Sensor, Taiwan) has a −6 dB fractional bandwidth of 57.5%, focal length of 9 mm, and a 6 mm active element, offering an axial resolution of 32 μm and a lateral resolution of 61 μm.
Laser energy was delivered using a 1-mm multimodal fiber. The fiber tip was coaxially aligned with a convex lens, an axicon, a plexiglass mirror, and an ultrasonic transducer on an optical bench, forming dark-field illumination that was confocal with the focal point of the ultrasonic transducer. The incident energy density on the sample surface was well within American National Standards Institute (ANSI) safety limits. The transducer was immersed in an acrylic water tank during the imaging process, and the hole at the bottom of the tank was sealed with a piece of […] thick polyethylene film. A thin layer of ultrasonic gel was applied as a PA conductive medium, which was then attached to the thin polyethylene film to ensure reliable coupling of the PA waves with the water tank. The PA signals received by the ultrasonic transducer were pre-amplified by a low-noise amplifier (noise FIG. 1.2 dB, gain 55 dB, AU-3A-0110, USA), cascaded to an ultrasonic receiver (5073 PR, Olympus, USA) and then digitized and sampled by a computer-based 14-bit analog to digital (A/D) card (CompuScope 14220, GaGe, USA) at a 200-MHz sampling rate for data storage.
Fluctuations in the laser energy were monitored with a photodiode (DET36A/M, Thorlabs, USA). The recorded photodiode signals were measured prior to the experiment to compensate for PA signal variations caused by laser-energy instability. The achievable penetration depth of the current PA microscopy system was 3 mm with approximately 18-dB SNR, where SNR is defined as the ratio of the signal peak value to the root-mean-square value of the noise. Three scan types can be provided by this system: A-line (i.e., one-dimensional images where the axis represents the imaging depth), B-scan (i.e., two-dimensional images where one axis is the lateral scanning distance and the other is the imaging depth), and C-scan (i.e., projection images from the three-dimensional images). The amplitude of the envelope-detected PA signals was used in the subsequent functional imaging analysis.
For both in vivo and in vitro imaging, the laser was pulsed with a pulse repetition rate of 10 Hz and coupled by a lens to an optical fiber to illuminate the ROI. A window at the bottom of the water container was sealed with an optically and ultrasonically transparent, disposable polyethylene film. After a commercially available ultrasound gel was applied to the brain for acoustic coupling, the brain was placed between the water container and the custom-made stereotaxic apparatus for imaging.
All the PA images in this study were acquired at 410 nm without any need for signal averaging, and yet the contrast quality of the PA images is high. […]

[2] = system: oral squamous cell carcinoma (OSCC) cells; assay: Cell viability study (MTS / CCK8 cytotoxicity assay); type: cell-based; conditions: 0.01-30 μM, 24 h incubation
Procedure: Five thousand oral squamous cell carcinoma (OSCC) cells were seeded in a 96-well plate for 24 h before a solution of 2 in DMEM ([…]) with the indicated concentrations (0.01-30 μM) was introduced into each well. After incubation for 24 h, 10 μL of CCK8 (cell counting kit-8, Sigma-Aldrich) was added to each well. Cell absorbance was measured with a SpectraMax 384 Plus spectral analyser after 4 h, with 450 nm excitation.

[3] = In vivo PA imaging of rat cortical vasculature (superior sagittal sinus); conditions: 200 μL of 30 μM, retro-orbital injection, 20 min after administration, 410 nm
Text: Cortical vasculature of the rat was in vivo imaged at 32×61 μm resolution, with a designed 50-MHz dark-field confocal PA microscopy system (FIG. 4); the PA signal at λ410 was acquired. The SSS is the largest vein in the rodent brain cortex, and a selected section of it is the region-of-interest (ROI) in this study (FIG. 5B). There is strong clinical evidence that controlling cerebral venous blood flow is critically important for patients with severe traumatic brain injury as well as for patients undergoing cardiac surgery. Then, the SSS is a large central cerebral vein at cortical layer, and collects blood flow from both hemispheres before emptying into the internal jugular vein. That is, accurate measurements of blood flow changes in the SSS are thus very important.
Six male Wistar rats (NUS-CARE, Singapore), weighing 250-300 grams, were used. Animal experiments were conducted in accordance with guidelines from Institutional Animal Care and Use Committee (IACUC) at the National University of Singapore. The rats were fasted for 24 h prior to the imaging experiments, but were given water ad libitum. They were anesthetized with isoflurane (2 to 3% in 100% O2), mounted in a dorsal position over a custom-made acrylic stereotaxic holder, and the skin and muscle on the skull were removed to expose the bregma landmark. […]

For `[C-]#[O+].[C-]#[O+].[C-]#[O+].[C-]#[O+].[C-]#[O+].[C-]#[O+].[C-]#[O+].[C-]#[O+].[C-]#[O+].[C-]#[O+].[C-]#[O+].[C-]#[O+].[Os].[Os].[Os]` [1c, Os3(CO)12], the water solubility (Water solubility) was “low water solubility”, the “PA signal relative to that for single-walled carbon nanotubes (SWNT)” value [1] was 2.4 times higher and the “PA signal relative to that for 1a” value ([1]; water/ethanol (60:40, v/v)) was “about 1.5 times higher”. The “PA signal relative to that for 1b” value ([1]; water/ethanol (60:40, v/v)) was roughly 1.2 times higher and the “PA signal, rank among the three carbonyl clusters” value ([1]; water/ethanol (60:40, v/v)) was “highest PA signal”.

For “Os3(CO)10(μ-H)μ-S(CH2)2COO^−Na^+ [compound 2]”, the water solubility (Water solubility) was “water-soluble”, the “effect on viability of cells (cytotoxicity)” value [2] was “little effect on the viability of cells” and the “concentration down to which PA signal of aqueous solution is adequate” value ([1]; aqueous solution, B-scan) was 2.5 µM. The “clarity of brain vasculature in PA B-scan image compared to intrinsic optical contrast” value [3] was “greater clarity”.

Source: patent US20160220709A1, “PHOTOACOUSTIC IMAGING CONTRAST AGENT COMPOSITION” (Agency for Science, Technology and Research, priority 2013, published 2016)
